Like-named read-outs stand apart in the source and are kept apart here. Blank lines part the entries; values can stand above or below the molecule they belong to.
How the values were obtained:
[1] = test system: CYP3A; settings: 2021, cited from earlier work
[2] = Adverse events (NCI CTCAE v5.0), Phase Ib study; assay type: in vivo, human; settings: for Patients with AE leading to discontinuation of the drug / Patients with AE leading to dose interruption of the drug / Patients with AE leading to dose reduction of the drug / Patients with AE related to the drug: all enrolled patients
Source text: Safety assessments consisted of monitoring and recording adverse events, including serious adverse events and adverse events of special interest, performing protocol-specified safety laboratory assessments, measuring protocol-specified vital signs, and conducting other protocol-specified tests that are deemed critical to the safety evaluation of the study. The adverse event severity grading scale for the NCI Common Terminology Criteria for Adverse Events (CTCAE) v5.0 was used for assessing adverse event severity. If daily dosing of ipatasertib was not tolerated, dosing with food might be used to alleviate gastrointestinal symptoms. […] For ipatasertib, with a starting dose of 300 mg, the first dose reduction was to 200 mg and the second down to 100 mg.

[3] = test system: CYP3A; design: method as in Jing et al., 2022; settings: ipatasertib 300 mg in the presence of palbociclib; ref Jing et al., 2022; cited from earlier work
[4] = cited from earlier work
[5] = test system: CYP3A; settings: 2021, cited from earlier work; remark: listed apart in the source
[6] = Steady-state plasma PK of ipatasertib and M1 (LC-MS/MS, noncompartmental analysis), Phase Ib study; assay type: in vivo, human; settings: for Tmax: 300 mg, median (range)
Method: From Cycle 2 Day 1 onward, ipatasertib was taken orally and daily on Days 1–21 of each 28-day cycle. […] Additionally, fulvestrant 500 mg was given via intramuscular (IM) injection on Days 1 and 15 of Cycle 1, and then on Day 1 of each subsequent 28-day cycle. […] The initial safety follow-up extended through at least Day 15 of Cycle two for all patients. […] PK samples for ipatasertib and its major metabolite, M1 (G-037720), were collected at specified time points: 15 min pre-dose, 0.5, 1, 2, 3, 4, 6 h post-dose on Day 1 of Cycle 1, and Day 15 of Cycle 1, as well as 15 min pre-dose on Day 15 of Cycle 2 and 15 min pre-dose and 2 h post-dose on Day 15 of Cycle 3. […] The plasma concentrations of ipatasertib and its metabolite M1 was determined using a previously reported, validated liquid chromatography-tandem mass spectrometry assay (LC-MS/MS) ([Sutaria et al., 2022]). […] The sample analyses were performed at Labcorp Early Drug Development Laboratories, Inc. (Madison, WI, Unitd States) using a Shimadzu LC instrument equipped with an Agilent Polaris C8-A column (2.0 × 50 mm, 5 μm) interfaced with a Sciex API 4000 mass spectrometer operated in positive electrospray ionization mode. […] Noncompartmental PK analysis (NCA) was performed using the commercial software Phoenix WinNonlin (Certara Unitd States, Inc., Princeton, NJ, Unitd States, Version 8.1) to characterize the PK parameters of ipatasertib and M1 including maximal concentration (Cmax), time to maximal concentration (Tmax), area under the curve from time 0 to the last measurable concentration (AUC0-t). […] Non-compartmental PK analyses were performed using Phoenix(R) WinNonlin (Version 8.3, Certara). […] A linear mixed model with a fixed effect for treatment and a random effect for patients was used on the natural log-transformed PK parameters.

[7] = Palbociclib predose plasma concentrations (LC-MS/MS), Phase Ib study; assay type: in vivo, human; settings: for Palbociclib plasma concentration, C2D15 predose / Palbociclib plasma concentration, C1D15 predose / Palbociclib plasma concentration, C3D15 predose: 125 mg, Geomean (geoCV%)
[8] = Palbociclib PK parameters estimated with established popPK model; assay type: in vivo, human
[9] = ipatasertib 100 mg single dose with itraconazole, ref Sane et al.
[10] = 300 mg QD with 125 mg palbociclib and fulvestrant vs alone
[11] = C1D15 (with palbociclib and fulvestrant) / C1D1 (ipatasertib alone)
[12] = human, plasma, oral, C1D1, ipatasertib 300 mg QD alone, N = 9, geometric mean (%geoCV)
[13] = ipatasertib coadministered with palbociclib and fulvestrant vs ipatasertib alone
[14] = palbociclib administered alone, ref U.S. Food and Drug Administration, 2014
[15] = additional patients for safety evaluation, N 9

Structure (SMILES): C[C@]12CC[C@@H]3c4ccc(O)cc4C[C@@H](CCCCCCCCC[S+]([O-])CCCC(F)(F)C(F)(F)F)[C@H]3[C@@H]1CC[C@@H]2O (some centres unmarked) [Fulvestrant]
CYP3A inhibition / induction classification ([1]; ref U.S. Food and Drug Administration): not an inhibitor or inducer of CYP3A
Patients with AE leading to discontinuation of the drug [2]: 0 Number of patients (%)
Patients with AE leading to dose interruption of the drug [2]: 5 (25%) Number of patients (%)
Patients with AE leading to dose reduction of the drug [2]: 0 Number of patients (%)
Patients with AE related to the drug [2]: 16 (80%) Number of patients (%)
AE considered related to the drug: anemia ([2]; triplet regimen, 20 patients): 10%
AE considered related to the drug: asthenia ([2]; triplet regimen, 20 patients): 15%
AE considered related to the drug: hot flush ([2]; triplet regimen, 20 patients): 10%

Structure (SMILES): CC(C)NC[C@@H](C(=O)N1CCN(c2ncnc3c2[C@H](C)C[C@H]3O)CC1)c1ccc(Cl)cc1 [Ipatasertib]
CYP3A inhibition classification ([1]; in vitro, ref Malhi et al.): mild to moderate CYP3A inhibitor
CYP3A4 substrate classification ([1]; ref Sane et al.): sensitive substrate
PBPK-predicted increase in AUC [3]: 48%
PBPK-predicted increase in Cmax [3]: 23%
Effective half-life ([4]; background statement, no reference printed with the sentence): approximately 24 h
AUC0-24,ss ([4]; ipatasertib 400 mg in other clinical studies, ref Yoshida et al., 2021): 2,920 ng*hr/mL
Dose proportionality of exposure ([4]; over the range of 200–800 mg, no reference printed with the sentence): dose-proportional
Increase in AUC0-∞ with itraconazole [5, 9]: 5.45 fold
Increase in Cmax with itraconazole [5, 9]: 2.26 fold
Increase in AUC0-∞ of midazolam ([5]; single dose of ipatasertib 600 mg with midazolam, ref Malhi et al.): 2.22 fold
Increase in AUC0-24,ss [6, 10]: 1.68 fold
Increase in Cmax,ss [6, 10]: 1.49 fold
AUC0-24,ss at 300 mg in presence of palbociclib relative to 400 mg in other clinical studies ([6]; 3,637 vs 2,920 ng*hr/mL): about 1.25 times
AUC0-24,ss geometric mean ratio (GMR) (90% CI) [6, 11]: 1.68 (1.41, 2.00)
Cmax,ss geometric mean ratio (GMR) (90% CI) [6, 11]: 1.49 (1.18, 1.88)
Tmax ([6]; human, plasma, oral, C1D1, ipatasertib 300 mg QD alone): 1 h
Tmax ([6]; human, plasma, oral, C1D15, ipatasertib 300 mg QD with palbociclib and fulvestrant): 1.9 h
AUC0-24,ss [6, 12]: 2170 ng·h/mL
Cmax [6, 12]: 294 ng/mL
Increase in AUC0-24,ss [6, 13]: 68%
Increase in Cmax,ss [6, 13]: 49%
Patients with AE leading to discontinuation of the drug [2]: 1 (5%) Number of patients (%)
Patients with AE leading to dose interruption of the drug [2]: 16 (80%) Number of patients (%)
Patients with AE leading to dose reduction of the drug [2]: 9 (45%) Number of patients (%)
Patients with AE related to the drug [2]: 20 (100%) Number of patients (%)
AE considered related to the drug: anemia ([2]; triplet regimen, 20 patients): 30%
AE considered related to the drug: diarrhea ([2]; triplet regimen, 20 patients): 75%
AE considered related to the drug: fatigue ([2]; triplet regimen, 20 patients): 25%
AE considered related to the drug: nausea ([2]; triplet regimen, 20 patients): 70%
AE considered related to the drug: neutropenia ([2]; triplet regimen, 20 patients): 30%
AE considered related to the drug: neutrophil count decreased ([2]; triplet regimen, 20 patients): 25%
AE considered related to the drug: platelet count decreased ([2]; triplet regimen, 20 patients): 30%
AE considered related to the drug: rash ([2]; triplet regimen, 20 patients): 35%
AE considered related to the drug: vomiting ([2]; triplet regimen, 20 patients): 45%

Palbociclib plasma concentration, C1D15 predose ([7]; ipatasertib run-in group, N 9): 69.9 (57.2) ng/mL
Palbociclib plasma concentration, C2D15 predose ([7]; ipatasertib run-in group, N 10): 76.9 (44.9) ng/mL
Palbociclib plasma concentration, C3D15 predose ([7]; ipatasertib run-in group, N 10): 71.5 (43.5) ng/mL
Palbociclib plasma concentration, C2D15 predose ([7]; total, N 16): 79.2 (36.4) ng/mL
Palbociclib plasma concentration, C1D15 predose ([7]; total, N 18): 71.8 (40.8) ng/mL
Palbociclib plasma concentration, C3D15 predose ([7]; total, N 19): 69.6 (45.7) ng/mL
Cmin ([7]; palbociclib in this study with ipatasertib and fulvestrant (summary of Table 3)): approximately 70 ng/mL
AUC over 24 h dosing interval at steady state ([8]; human, plasma, oral, 125 mg, read-out: AUC0-24,ss (popPK-estimated)): 2600 ng·h/mL
Cmax,ss (popPK-estimated) ([8]; palbociclib 125 mg with ipatasertib and fulvestrant, geometric mean (%CV)): 124 ng/mL
Structure (SMILES): CC(=O)c1c(C)c2cnc(Nc3ccc(N4CCNCC4)cn3)nc2n(C2CCCC2)c1=O [Palbociclib]
AUC0-24,ss [4, 14]: 1982 ng·h/mL
Cmax,ss [4, 14]: 116 ng/mL
Palbociclib plasma concentration, C2D15 predose ([7]; additional patients for safety evaluation, N 6): 83.2 (19.4) ng/mL
Palbociclib plasma concentration, C1D15 predose [7, 15]: 73.8 (20.7) ng/mL
Palbociclib plasma concentration, C3D15 predose [7, 15]: 67.5 (51.0) ng/mL
Patients with AE leading to discontinuation of the drug [2]: 1 (5%) Number of patients (%)
Patients with AE leading to dose interruption of the drug [2]: 13 (65%) Number of patients (%)
Patients with AE leading to dose reduction of the drug [2]: 10 (50%) Number of patients (%)
Patients with AE related to the drug [2]: 20 (100%) Number of patients (%)
AE considered related to the drug: anemia ([2]; triplet regimen, 20 patients): 40%
AE considered related to the drug: asthenia ([2]; triplet regimen, 20 patients): 25%
AE considered related to the drug: diarrhea ([2]; triplet regimen, 20 patients): 30%
AE considered related to the drug: nausea ([2]; triplet regimen, 20 patients): 40%
AE considered related to the drug: neutropenia ([2]; triplet regimen, 20 patients): 45%
AE considered related to the drug: neutrophil count decreased ([2]; triplet regimen, 20 patients): 40%
AE considered related to the drug: platelet count decreased ([2]; triplet regimen, 20 patients): 30%
AE considered related to the drug: stomatitis ([2]; triplet regimen, 20 patients): 25%
